Each structure is given as a SMILES string. Numbers after ± are expanded uncertainties.

This passage reports mass density and Normal melting temperature results from the NIST ThermoML archive (doi:10.1021/acs.jced.6b00813).

Data set [1] in a line: wn = mass fraction of the nth substance listed. The note with it: 101.3 kPa, Liquid, Pycnometric method.
For data set [2] the following is noted: Crystal; Titration method.

A word on the mass density: it is mass per unit of volume. As for `[Ca+2].[Cl-].[Cl-]` [calcium chloride] + O, the mass density in data set [1] (273.15 K, w1 = 0.373) is listed as 1427 ± 2 kg/m3.
Consider `O=[PH2][O-].O=[PH2][O-].[Ca+2]` [calcium hypophosphite] + O, for which the mass density turned out to be 1133 ± 2 kg/m3 in data set [1] (268.75 K, w1 = 0.1397); 1089 ± 2 kg/m3 in data set [1] (270.15 K, w1 = 0.0909); 1047 ± 2 kg/m3 in data set [1] (271.4 K, w1 = 0.0476); 1024 ± 2 kg/m3 in data set [1] (272.15 K, w1 = 0.0244); 1132 ± 2 kg/m3 in data set [1] (273.15 K, w1 = 0.1381); 1131 ± 2 kg/m3 in data set [1] (283.15 K, w1 = 0.1362). Also, the mass density is recorded as 1128 ± 2 kg/m3 in data set [1] (293.15 K, w1 = 0.1341); 1125 ± 2 kg/m3 in data set [1] (303.15 K, w1 = 0.1322); 1121 ± 2 kg/m3 in data set [1] (313.15 K, w1 = 0.1304); 1117 ± 2 kg/m3 in data set [1] (323.15 K, w1 = 0.1293); 1114 ± 2 kg/m3 in data set [1] (333.15 K, w1 = 0.1292); 1111 ± 3 kg/m3 in data set [1] (343.15 K, w1 = 0.1292). The mass density is given as 1107 ± 3 kg/m3 in data set [1] (353.15 K, w1 = 0.1295); 1103 ± 2 kg/m3 in data set [1] (363.15 K, w1 = 0.1297); 1103 ± 2 kg/m3 in data set [1] (373.15 K, w1 = 0.1302); 1103 ± 2 kg/m3 in data set [1] (376.95 K, w1 = 0.1302).
Regarding `O=[PH2][O-].[Na+]` [sodium phosphinate] + O, the mass density in data set [1] (273.15 K, w1 = 0.4776) turned out to be 1381 ± 2 kg/m3.
Take `O` [water]: the Normal melting temperature in data set [2] stood at 0.00 ± 0.77 °C.
For the compound `O` [water] + O=[PH2][O-].O=[PH2][O-].[Ca+2], in data set [1] (273.15 K, w2 = 0), the mass density was 999 ± 4 kg/m3.
